Where two headings read alike, the source gives them in different places.
How the values were obtained:
[1] = system: CD4+/Foxp3+/CD25+ Treg, CD4+/Foxp3-/CD25+ Teff and CD4+/Foxp3-/CD25- naive T cells; assay: STAT5 phosphorylation in three CD4+ T cell subsets (Treg, CD4 effector, CD4 naive), human PBMC; format: cell-based
Source text: In addition to being assessed for their ability to differentially stimulate Stat5 phosphorylation in CD4 positive Treg (CD4+/Foxp3+/CD25^high) versus Tconv (CD4+/Foxp3−/CD25^low) cells, two variants, P-0511 and P-0512, were further assayed for their ability to stimulate other effector T and NK cells, including CD4 positive Teff (CD4+/Foxp3-/CD25+), CD8 cytotoxic T effector and NK cells in comparison to wild-type IL-2 (P-0250) and three IL-2 benchmark molecules containing V91K, N88R, N88D respectively.
After human PBMC Cells were treated with serial dilutions of test compounds, fixed and permeabilized, washed, and stained with a mixture of anti-CD25-PE, anti-FOXP3-APC, anti-pSTAT5-FITC, and anti-CD4-PerCP-Cy5.5 antibodies, the flow cytometry analysis was gated into CD4+/Foxp3+/CD25+, CD4+/Foxp3−/CD25+, CD4+/Foxp3−/CD25− groups for the Treg, CD4 effector, and CD4 naive T cell subsets, respectively. Data are expressed as a percent of pStat5 positive cells in gated population and illustrated in FIG. 9.

[2] = system: STAT5 phosphorylation in NK cells; assay: STAT5 phosphorylation in CD56+ NK cells, human PBMC; format: cell-based
Source text: The Stat5 phosphorylation activity on other responder cells than CD4+ T cell subsets, including CD8+T and NK, by P-0511 was compared to P-0531, the S125I equivalent of wild-type P-0250. […] IL-2 receptors expressed on CD4+ Tconv, CD8+T and NK cells are primarily dimeric IL-2Rs, comprising IL-2R6 and γc.

Treg cells = assay: Treg proliferation and expansion in mice after a single subcutaneous injection (Example 9); format: in vivo, mouse; conditions: 0.3 mg/kg single s.c., C57/BL6 mice
Procedure: IL-2 variant Fc fusion proteins were administered to mice and their ability to preferentially proliferate and expand regulatory T cells (CD4+CD25+FoxP3+ T cells) over effector T cells and NK cells were determined in vivo.
Female C57/BL6 mice (7-week old) were received from Charles River Laboratory and acclimated in house for at least 7 days before the study. Vehicle (PBS), 0.3 mg/kg of each test compounds, or IL-2 benchmark compounds were subcutaneously administered to mice on day 0. Peripheral blood samples were collected into heparin-treated tubes on days 3, 5 and 7 post-treatment. Each group contained 6 mice and baseline blood was collected 2 days prior to the treatment (day −2). After red blood cell lysis, total viable mononuclear blood cells were counted by trypan blue dead cell exclusion method and proceeded to intracellular staining for immune cell phenotype and Ki67 proliferation markers using flow cytometric analysis. Cells were stained separately with two panels of antibodies as listed: 1) anti-mouse Foxp3-FITC, Ki67-PE, anti-mouse CD25-APC and anti-mouse CD4-Percpcy5.5 (1:50 dilution) for CD4+T-regulatory cells (Treg); 2) anti-mouse CD3-FITC, Ki67-PE, anti-mouse CD335-APC and anti-mouse CD8-Percpcy5.5 (1:50 dilution) for CD8+T and NK cells.

[3] = system: CD4+ Tconv cells, CD8 Teff and NK cells; assay: Dose-response pharmacodynamics, CD4+ Tconv, CD8 and NK cells in mice (Example 10); format: in vivo, mouse; conditions: single s.c. dose, Balb/C mice
Procedure: Following a single subcutaneous administration of vehicle (PBS) or P-0511 (1, 0.3, 0.1, or 0.03 mg/kg) to female Balb/C mice (n=5/group), peripheral blood was collected on day −2 as baseline, and post dose on days 3, 5, and 7. On day 7, mice were sacrificed, and spleens were harvested. Blood lymphocyte phenotyping, proliferation and expansion were measured by flow cytometry at each timepoint using fresh whole blood.

[4] = system: KLH-induced DTH in Balb/C mice; assay: KLH-induced delayed-type hypersensitivity (DTH) mouse model, ear thickness; format: in vivo; conditions: for inhibition of ear inflammation (separate study): Q5D
Procedure: The ability of Treg cells induced by IL-2 variants to suppress T cell antigen-driven inflammation in vivo was assessed in a model of delayed-type hypersensitivity (DTH). Female Balb/C mice (7-week old) were acclimated in house for 7 days and randomized into groups. Subcutaneous administration of vehicle (PBS), P-0511 at either 0.1 mg/kg or 0.3 mg/kg was initiated on day −2 and was given either once every 3 days (Q3D) for three injections or once every 5 days (Q5D) for two injections. Mice were then sensitized with a subcutaneous administration of 100 μg keyhole limpet hemocyanin (KLH) in 200 μl saline on day 0. For Q3D dosing, two more subcutaneous injections of PBS or P-0511 (0.1 or 0.3 mg/kg) were administered on days 1, and 4; for Q5D dosing, one additional s.c. injection of PBS, 0.1 or 0.3 mg/kg P-0511 was administered on day 3. Mice received an intradermal challenge of KLH (5 μg in 10 μl saline) in right ear on day 5. Right ear thickness was measured using a caliper on day 5 prior KLH challenge and daily from day 6 to day 9 corresponding to 24 h, 48 h, 72 h and 96 h post KLH challenge. One group of mice also received 5 mg/kg daily i.p. treatment of dexamethasone from day 5 to day 8 as a positive control.
Kinetics of the DTH response using the change in ear thickness relative to baseline values (Δ ear thickness) at various times after KLH challenge was illustrated in FIG. 23.

Substance: P-0511: IL-2 L19H/S125I/Q126E Fc fusion, SEQ ID NO: 213
- pSTAT5 activity profile in Treg, Teff and naive CD4 T cell subsets (in words) [1]: preferential activation of Treg over Teff
- pSTAT5 activity profile in Treg, Teff and naive CD4 T cell subsets (in words) ([1]; listed as P-511): superior to both Benchmark-2 and -3
- STAT5 phosphorylation activity in NK cells (in words) [2]: nearly completely abolished
- Treg/Tconv ratio (Ki67 stimulation and cell counts) (Treg cells; all measured time points): most beneficial Treg/Tconv ratio
- stimulation of Treg cell proliferation and expansion in vivo (in words) (Treg cells; days 3, 5, 7): stronger in vivo efficacy
- percentages of CD4+ Tconv, CD8 Teff and NK cells over the total lymphocytes [3]: no statistically significant changes
- suppression of DTH ear swelling ([4]; 0.1 mg/kg s.c., Q3D and Q5D): did not reach statistical significance at most of the time points
- inhibition of ear inflammation (separate study) ([4]; 0.1 mg/kg): mild
- inhibition of ear inflammation (separate study) ([4]; 0.3 mg/kg): Intermediate
- inhibition of ear inflammation (separate study) ([4]; 1 mg/kg): strong resistance to KLH-induced DTH
